We go through 52 molecules from PubChem BioAssay AID1996.

The structures appear in SMILES notation. Converted amounts (≈) assume the structure as drawn. Where only a bound is given, the exact number is not on record here.

The conditions of the data set: buffer; pH 7.4; 200.0 µM.
As to `COc1ccc(CC(=O)OC(C)C(=O)Nc2ccc(S(N)(=O)=O)cc2)cc1` (configuration not stated), the kinetic solubility is greater than 58.9 µg/mL.

`CC1(C)OC(C)(C)/C(=C\c2ccccc2[N+](=O)[O-])C1=O` registered a solubility (kinetic) of 27.7 µg/mL (≈ 101 µM).

`OCC1(Cc2ccccc2)CCN(Cc2ccccn2)CC1` showed a solubility (kinetic) greater than 44.5 µg/mL.

Turning to `O=C1C(Cl)=C(N2CCCC2)C(=O)N1c1ccc(F)cc1`, the kinetic solubility is 7.4 µg/mL (≈ 25.1 µM).

In turn, `CC(C)NC(=O)/C(C#N)=C\c1ccc(N(C)C)o1` displayed a solubility (kinetic) greater than 37.1 µg/mL.

In turn, `O=[N+]([O-])c1ccc(N2CCN(C(=S)Nc3ccc(F)cc3)CC2)cc1` displayed a kinetic solubility of 0.4 µg/mL (≈ 1.11 µM).

`Cc1ccc(C(=O)N(C)Cc2nc3ccccc3c(=O)[nH]2)cc1NC(=O)c1ccco1`: the solubility (kinetic) was greater than 62.5 µg/mL.

In turn, `CCOc1ccc(S(=O)(=O)Nc2nccs2)cc1` gave a solubility (kinetic) greater than 42.7 µg/mL.

`O=C(NCCN1CCCCC1)Nc1ccc(F)cc1F`: the kinetic solubility is greater than 42.5 µg/mL.

Consider `CCOc1ccc2[nH]c3c(NCCOC)ncnc3c2c1`, for which the kinetic solubility was greater than 42.9 µg/mL.

For `CC(=Nc1ccccc1C(F)(F)F)c1ccncc1`, the kinetic solubility is less than 0.3 µg/mL.

In turn, `CCOc1ccc(N(CC(=O)N2CCCCCC2)S(C)(=O)=O)cc1` showed a solubility (kinetic) of 31 µg/mL (≈ 87.5 µM).

In the case of `CCOC(=O)C1=C(N)c2ccccc2CC1C1CCCC1` (configuration not stated), the solubility (kinetic) is 0.8 µg/mL (≈ 2.8 µM). This solubility kinetic lies about 39-fold lower than the previous one.

`COc1ccccc1Cc1nc(-c2ccncc2)no1` returned a solubility (kinetic) of 33.4 µg/mL (≈ 125 µM).

`CC(C)(C)OC(=O)N1Cc2[nH]c3ccccc3c2C[C@@H]1C(=O)O` had a kinetic solubility greater than 47.5 µg/mL.

For the molecule `CCN(CC)C1CC(=O)N(c2cccc(Cl)c2)C1=O` (configuration not stated), the kinetic solubility is greater than 42.1 µg/mL.

`Cc1onc(-c2ccccc2)c1NC(=O)N(CCC#N)Cc1cccs1` had a solubility (kinetic) of 54.4 µg/mL (≈ 148 µM).

On to `O=C(CN1CCN(c2ccccc2F)CC1)c1ccc(O)cc1O`, for which the solubility (kinetic) amounted to 10.7 µg/mL (≈ 32.4 µM). This solubility kinetic is about 5.1-fold lower than that of the molecule before.

`CCN(Cc1ccccc1)C(=O)COC(=O)c1cnc(C)cn1` displayed a solubility (kinetic) of 38 µg/mL (≈ 121 µM).

Consider `CSc1ccccc1NC(=O)COC(=O)CCC(=O)c1ccc(F)cc1`, for which the kinetic solubility was greater than 56.3 µg/mL.

`O=C(Nc1cccc(F)c1)C1CCN(C(=O)c2ccco2)CC1`: the kinetic solubility stood at 44.4 µg/mL (≈ 140 µM).

On to `COc1ccc(/C=C/C(=O)OCC(=O)N(C)CC(=O)Nc2ccc(C)cc2)c(OC)c1`, for which the kinetic solubility worked out at 4.4 µg/mL (≈ 10.3 µM). Against the preceding molecule, the solubility kinetic is about 10-fold lower.

Consider `COc1cc([N+](=O)[O-])ccc1N1C(=O)CC(Sc2nccc(C)n2)C1=O` (configuration not stated), for which the solubility (kinetic) was greater than 56.2 µg/mL.

With `CCN(C(=O)COC(=O)c1ccccc1O)c1nc2ccccc2s1`, the solubility (kinetic) worked out at 2.4 µg/mL (≈ 6.73 µM).

Molecule `O=C(CNC(=O)c1cccs1)OCc1ccc(Cl)cc1` registered a solubility (kinetic) of 41 µg/mL (≈ 132 µM). This solubility kinetic is about 17-fold higher than that of the molecule before.

`Cc1ccc(O)c(NC(=O)c2onc(C)c2Cl)c1` registered a solubility (kinetic) of 6.2 µg/mL (≈ 23.2 µM).

Molecule `Cc1ccccc1NC(=O)CN1CCN(Cc2ccccc2)CC1` returned a solubility (kinetic) of 44.3 µg/mL (≈ 137 µM).

With `O=[N+]([O-])c1ccccc1/C=C/CN1CCSCC1`, the solubility (kinetic) turned out to be 29.2 µg/mL (≈ 110 µM).

Regarding `COCCNC(=O)Cn1nc(-c2ccc(C)cc2)ccc1=O`, the kinetic solubility is greater than 45.2 µg/mL.

As for `CC1CC(C)CN(C(=O)COC(=O)CCC(=O)c2cccs2)C1` (configuration not stated), the kinetic solubility is greater than 50.6 µg/mL.

As to `Cc1ccc(C)c(NC(=O)Cc2nc(CNCC(C)C)cs2)c1`, the solubility (kinetic) was 47.1 µg/mL (≈ 142 µM).

The molecule `O=S(=O)(Nc1cccnc1Cl)c1ccc(-c2ccccc2)cc1` returned a kinetic solubility of 47.7 µg/mL (≈ 138 µM). The solubility kinetic values of the last two molecules are within 1.5-fold of each other.

In turn, `Cc1ccc(C(=O)NCCNC(=O)c2ccc(F)cc2)cn1` displayed a kinetic solubility greater than 45.2 µg/mL.

With `O=C(NC1CCS(=O)(=O)C1)c1cc(-c2ccccc2)nc2ccccc12` (configuration not stated), the solubility (kinetic) was greater than 55 µg/mL.

As for `COc1ccc2cc3cc(C(=O)NCCC(C)C)oc3nc2c1`, the solubility (kinetic) is less than 0.3 µg/mL.

Regarding `Cc1cccc(-c2nc3sc(C)cc3c(=O)o2)c1`, the kinetic solubility is less than 0.6 µg/mL.

In the case of `C=CCn1cc(/C=C2\SC(N3CCOCC3)=NC2=O)c2ccccc21`, the solubility (kinetic) was determined as 9.5 µg/mL (≈ 26.9 µM).

The molecule `Cc1ccc2nc(SC(C)C(=O)N3CCCCC3)[nH]c2c1` (configuration not stated) came in with a kinetic solubility greater than 45.5 µg/mL.

As to `Nc1nccc(-c2cc(-c3ccc(Cl)cc3Cl)no2)n1`, the kinetic solubility was determined as 0.7 µg/mL (≈ 2.28 µM).

In turn, `O=C(CCc1ccccc1)Nc1cc2c(cc1C(=O)O)OCCCO2` registered a kinetic solubility greater than 51.2 µg/mL.

Regarding `C=CCNC(=O)c1cc(-c2ccc3c(c2)OCO3)on1`, the solubility (kinetic) came to 1.5 µg/mL (≈ 5.51 µM).

The molecule `Cc1ccc(NC(=O)c2cc3cc(OC(F)(F)F)ccc3[nH]2)cc1` displayed a solubility (kinetic) of less than 0.4 µg/mL.

Turning to `O=C(CSc1c[nH]c2ccccc12)NC1CCCC1`, the kinetic solubility is greater than 41.2 µg/mL.

`O=[N+]([O-])c1cc(C(F)(F)F)ccc1NCCc1ccccn1`: the kinetic solubility is 18.8 µg/mL (≈ 60.4 µM).

In the case of `NC(=O)c1c(NC(=O)c2ccc(F)cc2)sc2c1CCC2`, the solubility (kinetic) came to 0.7 µg/mL (≈ 2.3 µM).

Take `CCCc1cc(C(=O)Nc2ccc(OC)cc2[N+](=O)[O-])cs1`: the solubility (kinetic) is less than 0.3 µg/mL.

As for `O=C(O)C1CCN(C(=O)Cc2ccccc2)CC1`, the kinetic solubility is greater than 37.1 µg/mL.

For `O=C(CN1C(=O)C2CC=CCC2C1=O)Nc1nc(-c2ccc(F)c(F)c2)cs1` (configuration not stated), the solubility (kinetic) is 4.8 µg/mL (≈ 11.9 µM).

In turn, `CCc1ccc(N2CC(C(=O)NCCC3=CCCCC3)CC2=O)cc1` (configuration not stated) yielded a kinetic solubility of 6.8 µg/mL (≈ 20 µM).

With `Cc1onc(-c2ccccc2)c1C(=O)NCc1ccc(F)cc1`, the kinetic solubility is 7 µg/mL (≈ 22.6 µM). The solubility kinetic values of the last two molecules are within 1.5-fold of each other.

Take `COC(=O)c1ccc(NC(=O)C2CCCN(S(C)(=O)=O)C2)cc1` (configuration not stated): the solubility (kinetic) is 31.8 µg/mL (≈ 93.4 µM).

On to `Cc1ccc(/C=C/C(=O)OCC(=O)NCCc2ccc(S(N)(=O)=O)cc2)o1`, for which the kinetic solubility was greater than 58.9 µg/mL.
